In patent publication US11091496B2, “Opioid ketal compounds and uses thereof” (priority 2013, dated 2021):
Like-named read-outs stand apart in the source and are kept apart here.

How the values were obtained:
[1] = Hydrolysis in Simulated Gastric Fluid (SGF) at 37° C., LC/MS; settings: for Hydrolysis in SGF: hydrolyzed in 6.75 hours; for Oxycodone, Ketal A-D in hydrolysis mixture: oxycodone 2,4-pentanediol ketal isomers + unreacted oxycodone, 2 mg/nil, SGF 37° C.
[2] = type: physicochemical; settings: for time to almost complete hydrolysis: 0.1N HCl 37° C., FIG. 10; for % Oxycodone, % IVA-IVD in hydrolysis mixture: total 1 mg/ml; for % Oxycodone, % IVA-IVD in hydrolysis mixture / % IVC in hydrolysis mixture / % Oxycodone, % IVD in hydrolysis mixture: 0.1 N HCl 37° C.; for relative rate of hydrolysis: comparison of stereoisomers; for % IVC in hydrolysis mixture: isomer IVC tested separately; for % IVC in hydrolysis mixture / % Oxycodone, % IVD in hydrolysis mixture: 1 mg/ml, normalized; for % Oxycodone, % IVD in hydrolysis mixture: isomer IVD tested separately
[3] = unreacted oxycodone + four isomers of Formula IV, 1 mg/ml, 5% acetic acid 100° C.
[4] = Ketal hydrolysis at varying pH, buffers at 37° C.; settings: 1 mg/ml; for hydrolysis of the ketal: Table 13b, 37° C.

COc1ccc2c3c1OC1C4(CCC5(O)[C@@H](C2)N(C)CC[C@]315)OCC(C)O4 (some centres unmarked)
Hydrolysis in SGF [1]: Trace hydrolysis in 6.75 hours

COc1ccc2c3c1OC1C4(CCC5[C@@H](C2)N(C)CC[C@@]351)OCCO4 (some centres unmarked)
Hydrolysis in SGF [1]: ~2% hydrolyzed in 6.75 hours

COc1ccc2c3c1OC1C4(CCC5(O)C(C2)N(C)CCC315)OC(C)CC(C)O4 (stereo not drawn) [IVB, oxycodone 2S,4R-pentanediol ketal]
Oxycodone, Ketal A-D in hydrolysis mixture ([1]; 0 h): 10.3
Oxycodone, Ketal A-D in hydrolysis mixture ([1]; 0.58 h): 9.8
Oxycodone, Ketal A-D in hydrolysis mixture ([1]; 1.25 h): 10.4
Oxycodone, Ketal A-D in hydrolysis mixture ([1]; 2 h): 9.7
Oxycodone, Ketal A-D in hydrolysis mixture ([1]; 3 h): 10.2
Oxycodone, Ketal A-D in hydrolysis mixture ([1]; 4 h): 9.1

COc1ccc2c3c1O[C@H]1C4(CCC5(O)[C@@H](C2)N(C)CC[C@]315)O[C@@H](C)C[C@H](C)O4 (stereo partly drawn) [IVC, oxycodone 2S,4S-pentanediol ketal]
time to almost complete hydrolysis [2]: ≤ 8 h
% Oxycodone, % IVA-IVD in hydrolysis mixture ([2]; 0 h): 35.8%
% Oxycodone, % IVA-IVD in hydrolysis mixture ([2]; 0.583 h): 29.2%
% Oxycodone, % IVA-IVD in hydrolysis mixture ([2]; 1.167 h): 26%
% Oxycodone, % IVA-IVD in hydrolysis mixture ([2]; 1.75 h): 20.6%
% Oxycodone, % IVA-IVD in hydrolysis mixture ([2]; 2.33 h): 17.7%
% Oxycodone, % IVA-IVD in hydrolysis mixture ([2]; 2.92 h): 15%
% Oxycodone, % IVA-IVD in hydrolysis mixture ([2]; 4 h): 10.3%
% Oxycodone, % IVA-IVD in hydrolysis mixture ([2]; 6.5 h): 4%
% Oxycodone, % IVA-IVD in hydrolysis mixture ([2]; 9.75 h): 1.5%
% Oxycodone, % IVA-IVD in hydrolysis mixture ([2]; 13.75 h): 0%
% Oxycodone, % IVA-IVD in hydrolysis mixture ([2]; 25 h): 0%
relative rate of hydrolysis [2]: hydrolyzes relatively slowly
% IVC in hydrolysis mixture ([2]; 0 h): 98.7%
% IVC in hydrolysis mixture ([2]; 0.75 h): 71.5%
% IVC in hydrolysis mixture ([2]; 1.5 h): 54%
% IVC in hydrolysis mixture ([2]; 3.33 h): 18.8%
% IVC in hydrolysis mixture ([2]; 6 h): 4.7%
% IVC in hydrolysis mixture ([2]; 8 h): 2.1%
% Oxycodone, % IVA-IVD in hydrolysis mixture ([3]; 0 h): 36.2%
% Oxycodone, % IVA-IVD in hydrolysis mixture ([3]; 0.5 h): 12.8%
% Oxycodone, % IVA-IVD in hydrolysis mixture ([3]; 1 h): 5.9%
% Oxycodone, % IVA-IVD in hydrolysis mixture ([3]; 2 h): 0.9%
% Oxycodone, % IVA-IVD in hydrolysis mixture ([3]; 4.35 h): 0%
% Oxycodone, % IVA-IVD in hydrolysis mixture ([3]; 10 h): 0%

COc1ccc2c3c1O[C@H]1C4(CCC5(O)[C@@H](C2)N(C)CC[C@]315)O[C@H](C)C[C@@H](C)O4 (stereo partly drawn) [IVD, oxycodone 2R,4R-pentanediol ketal]
time to almost complete hydrolysis [2]: ≤ 2 h
% Oxycodone, % IVA-IVD in hydrolysis mixture ([2]; 0 h): 17.3%
% Oxycodone, % IVA-IVD in hydrolysis mixture ([2]; 0.583 h): 8.6%
% Oxycodone, % IVA-IVD in hydrolysis mixture ([2]; 1.167 h): 4.8%
% Oxycodone, % IVA-IVD in hydrolysis mixture ([2]; 1.75 h): 2.6%
% Oxycodone, % IVA-IVD in hydrolysis mixture ([2]; 2.33 h): 1.5%
% Oxycodone, % IVA-IVD in hydrolysis mixture ([2]; 2.92 h): 0.7%
% Oxycodone, % IVA-IVD in hydrolysis mixture ([2]; 4 h): 0%
% Oxycodone, % IVA-IVD in hydrolysis mixture ([2]; 6.5 h): 0%
% Oxycodone, % IVA-IVD in hydrolysis mixture ([2]; 9.75 h): 0%
% Oxycodone, % IVA-IVD in hydrolysis mixture ([2]; 13.75 h): 0%
% Oxycodone, % IVA-IVD in hydrolysis mixture ([2]; 25 h): 0%
relative rate of hydrolysis [2]: hydrolyzes relatively quickly
% Oxycodone, % IVD in hydrolysis mixture ([2]; 0 h): 99.8%
% Oxycodone, % IVD in hydrolysis mixture ([2]; 0.17 h): 70%
% Oxycodone, % IVD in hydrolysis mixture ([2]; 0.33 h): 44.8%
% Oxycodone, % IVD in hydrolysis mixture ([2]; 1 h): 10.8%
% Oxycodone, % IVD in hydrolysis mixture ([2]; 2 h): 2%
hydrolysis of the ketal ([4]; pH 1, 0 h): 0
hydrolysis of the ketal ([4]; pH 1, 0.33 h): 55.2
hydrolysis of the ketal ([4]; pH 1, 1 h): 89.2
hydrolysis of the ketal ([4]; pH 1, 2 h): 98
hydrolysis of the ketal ([4]; pH 1, 4 h): 100
hydrolysis of the ketal ([4]; pH 1.5, 0 h): 0
hydrolysis of the ketal ([4]; pH 1.5, 0.33 h): 14.9
hydrolysis of the ketal ([4]; pH 1.5, 1 h): 34.4
hydrolysis of the ketal ([4]; pH 1.5, 2 h): 51.9
hydrolysis of the ketal ([4]; pH 1.5, 4 h): 80.4
hydrolysis of the ketal ([4]; pH 2, 0 h): 0
hydrolysis of the ketal ([4]; pH 2, 0.33 h): 4.6
hydrolysis of the ketal ([4]; pH 2, 1 h): 13.3
hydrolysis of the ketal ([4]; pH 2, 2 h): 24.2
hydrolysis of the ketal ([4]; pH 2, 4 h): 40.9
hydrolysis of the ketal ([4]; pH 2.5, 0 h): 0
hydrolysis of the ketal ([4]; pH 2.5, 0.33 h): 0
hydrolysis of the ketal ([4]; pH 2.5, 1 h): 0
hydrolysis of the ketal ([4]; pH 2.5, 2 h): 8.4
hydrolysis of the ketal ([4]; pH 2.5, 4 h): 14.7
hydrolysis of the ketal ([4]; pH 3, 0 h): 0
hydrolysis of the ketal ([4]; pH 3, 0.33 h): 0
hydrolysis of the ketal ([4]; pH 3, 1 h): 0
hydrolysis of the ketal ([4]; pH 3, 2 h): 3.4
hydrolysis of the ketal ([4]; pH 3, 4 h): 6.4
pH at which hydrolysis of the ketal is fastest ([4]; pH buffers 37° C.): fastest at pH 1
% Oxycodone, % IVA-IVD in hydrolysis mixture ([3]; 0 h): 17.6%
% Oxycodone, % IVA-IVD in hydrolysis mixture ([3]; 0.5 h): 1.5%
% Oxycodone, % IVA-IVD in hydrolysis mixture ([3]; 1 h): 0%
% Oxycodone, % IVA-IVD in hydrolysis mixture ([3]; 2 h): 0%
% Oxycodone, % IVA-IVD in hydrolysis mixture ([3]; 4.35 h): 0%
% Oxycodone, % IVA-IVD in hydrolysis mixture ([3]; 10 h): 0%
